SMILES strings stand for the structures. Where two headings read alike, the source gives them in different places.

One test deals with E. coli biofilm. The test is described as follows: Photoinactivation of 48-hour in vitro biofilms by adjuvant/antibiotic + antimicrobial blue light. It is filed as cell-based, Escherichia coli. The method, then:
The bacterial suspension was grown in a shaking incubator overnight in BHI broth. Cells were collected by centrifugation at 4,000 rpm for 5 minutes and suspended in PBS at a density of 10^6 CFU/mL. Then, the biofilms were grown for 48 hours (unless otherwise specified) in 96-well microtiter plates as described previously [Ref. 27], with a renewal of the media every 24 hours. Following the 48-hour biofilm growth, fresh 200 μL of PBS with or without menadione in different concentrations were added to the wells and the biofilms were incubated in the dark at 25° C. for 1 hour: 0, 0.5, 1, and 2 μg/mL for MRSA USA300, AF0001, IQ0064; 0, 1, 10, 30 and 50 μg/mL for P. aeruginosa PA01; and 0, 100, and 150 μg/mL for E. coli ATCC 25922. After that, the control and the menadione-treated biofilms were maintained without irradiation (“menadione/dark”). Simultaneously, the aBL was delivered to the other biofilm groups testing different power densities (50, 30, 15, and 10 mW/cm^2) while keeping the same radiant exposure of 250 J/cm^2. After the light exposure, the biofilms were carefully washed two times with PBS and 200 μL of PBS was added to each well. Then, the bacterial biofilms in each well were harvested by scratching with a sterile pipette tip and three wells of each group were pooled together in a 1.5 mL microcentrifuge tube. The total volume obtained, 600 μL (3 wells), was sonicated using a Branson 2510 Water Bath Sonicator (Marshall Scientific, LLC) for 5 minutes and the CFU was determined by 10-fold serial dilutions in PBS on BHI agar plates. CFU was counted after overnight incubation at 37° C. Experiments were performed in triplicate.
A bacterial suspension was grown in a shaking incubator overnight in BHI broth. Cells were collected by centrifugation at 4,000 rpm for 5 minutes and suspended in PBS at a density of 10^6 CFU/mL. Then, the biofilms were grown for 48 hours in 96-well microtiter plates with a renewal of the media every 24 hours. Following the 48-hour biofilm growth, fresh 200 μL of PBS with the tetracyclines minocycline, doxycycline, and demeclocycline in different concentrations were added to the wells and the biofilms were incubated in the dark at 25° C. for 1 hour: 0, 0.25, 0.5, and 1 μg/mL for minocycline; 0, 0.5, 1, and 2 μg/mL for doxycycline; and 0, 0.5, 1, and 2 for demeclocycline. After that, the control and the tetracycline-treated biofilms were maintained without irradiation (“menadione/dark”). […] The total volume obtained, 600 μL (3 wells), was sonicated using a Branson 2510 Water Bath Sonicator (Marshall Scientific, LLC) for 5 minutes and the CFU/mL was determined by 10-fold serial dilutions in PBS on BHI agar plates. CFU was counted after overnight incubation at 37° C.

The subject of another test is P. aeruginosa. Description: MIC of menadione by broth microdilution, with or without aBL. It is filed as cell-based, Pseudomonas aeruginosa PA01. The method, then:
(§1) The MICs of menadione in different bacterial strains were determined by a standard broth microdilution assay according to the Clinical and Laboratory Standards Institute. Briefly, menadione was prepared at 100 mg/mL in Tween 80/DMSO (1:1) as a stock solution. The stock solution was diluted to 2048 μg/mL in BHI and then serial dilutions were performed to 1024-0.015 μg/mL in a 96-well plate. Then, a 10 μL stationary growth-phase culture of 10^8 CFU/mL bacteria in BHI broth was added to the 96-well plate containing the serial dilutions of menadione. The medium containing a similar amount of Tween 80/DMSO (1:1) served as a control. The microplates were incubated at 37° C. for 24 hours and the lowest concentration of the compound capable of completely inhibiting bacterial growth was referred to as the MIC.
(§2) However, we investigated the effects of aBL (50 mW/cm^2) in potentiating the antibacterial activities of menadione in the three strains of bacteria. […] The highest fluence that we investigated was 125 J/cm^2, when we irradiated the bacteria for 42 minutes.

Test [1] concerns E. coli biofilms in ex-vivo explants. Description: Photoinactivation of biofilms in ex vivo porcine partial thickness wounds by menadione + aBL. In kind it is cell-based, Escherichia coli. The method, then:
Skin was handled and sanitized with 70% isopropanol solution after hair shaving. The explants and inner wounds were created using a 12 mm and 4 mm biopsy punches respectively. The explants were placed in 12 wells plates using a (8 μm pore) inserts (Corning™ Falcon™). 1 mL of DMEM media was added to each well in the plate before the insert. After 24 hours, the inner wounds in the explants were inoculated with 20 μL of 10^8 CFU/mL of bacterial solution. After that, the explants were incubated at 37° C. and 5% CO2 for 48 hours to ensure the growth of a mature bacterial biofilm. The inner wounds of the explants were replenished daily with fresh BHI media to ensure that the wounds are hydrated.
48 hours following the inoculation, mature monobacterial biofilms of MRSA, P. aeruginosa, and E. coli were obtained with 8.00 log10 CFU/g per wound bed on each explant. MRSA biofilms in explant were reduced by 0.81 log10 CFU/g after the treatment of just aBL 250 J/cm^2 (50 mW/cm^2). However, MRSA biofilms in ex-vivo porcine skin were reduced by up to 4.18 log10 CFU/g when treated with aBL combined with menadione (200 μg/mL). For MRSA biofilms, the log reduction of mature monobacterial biofilm increased as the menadione concentration increased (see FIGS. 16A-16B). […]

A further test addresses NorA efflux pump (Staphylococcus aureus, UniProt P0A0J7). As to conditions: cited from earlier work.
Another test concerns MRSA. Description: MIC of menadione by broth microdilution, with or without aBL. In kind it is cell-based, methicillin-resistant Staphylococcus aureus. To be noted: for MIC: Staphylococcus aureus, MRSA, light or radiation study. The method, then: as §1, §2

NorA efflux pump, sequence (P0A0J7 whole entry): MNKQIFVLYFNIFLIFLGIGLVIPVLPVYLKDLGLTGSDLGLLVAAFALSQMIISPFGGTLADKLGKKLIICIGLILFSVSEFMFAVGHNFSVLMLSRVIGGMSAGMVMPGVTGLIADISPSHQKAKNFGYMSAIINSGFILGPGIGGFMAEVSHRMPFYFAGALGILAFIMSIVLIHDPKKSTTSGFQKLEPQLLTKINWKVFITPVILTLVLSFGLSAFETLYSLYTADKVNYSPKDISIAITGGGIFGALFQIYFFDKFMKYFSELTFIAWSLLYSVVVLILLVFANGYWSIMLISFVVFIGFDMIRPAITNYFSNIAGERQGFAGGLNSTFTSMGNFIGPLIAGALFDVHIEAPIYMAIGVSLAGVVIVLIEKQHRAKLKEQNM

For `CC1=CC(=O)c2ccccc2C1=O` [menadione, 2-methyl-1,4-naphthoquinone], the “biofilm reduction by menadione without irradiation” value with E. coli biofilm (48 h biofilm, dark) is less than 1 log killing. Further, the “biofilm eradicated by menadione plus aBL” value in the test with E. coli biofilm (48 h biofilm, 100 μg/mL menadione + aBL 250 J/cm^2 (50 mW/cm^2)) came out at 4.8 log10 CFU/mL. For the same molecule, the “enhancement of killing in comparison with aBL alone” value with E. coli biofilm (48 h in vitro biofilm, menadione + aBL) amounted to 1 log-fold. The MIC – broadly, the lowest concentration that inhibits growth of the organism – in the test on P. aeruginosa (Pseudomonas aeruginosa, light or radiation study, 5 min, aBL 15.62 J/cm^2 (5 mins.), 50 mW/cm^2, read-out: MIC) was 64 µg/mL; in the test on P. aeruginosa (Pseudomonas aeruginosa, light or radiation study, 0.175 h, aBL 31.25 J/cm^2 (10.5 mins.), 50 mW/cm^2, read-out: MIC), 8 µg/mL; with P. aeruginosa (Pseudomonas aeruginosa, light or radiation study, 0 J/cm^2 (Dark), read-out: MIC), 1020 µg/mL; in the test with P. aeruginosa (aBL 62.5 J/cm^2 (21 mins.), 50 mW/cm^2) it was “complete eradication”; in the test with P. aeruginosa (aBL 125 J/cm^2 (42 mins.), 50 mW/cm^2) it was “completely eradicated”; in the test with MRSA (5 min, aBL 15.62 J/cm^2 (5 mins.), 50 mW/cm^2), 8 µg/mL. For the same molecule, the MIC in the test with MRSA (0.175 h, aBL 31.25 J/cm^2 (10.5 mins.), 50 mW/cm^2) came out at 4 µg/mL; in the test on MRSA (0.35 h, aBL 62.5 J/cm^2 (21 mins.), 50 mW/cm^2), 1 µg/mL; with MRSA (0.7 h, aBL 125 J/cm^2 (42 mins.), 50 mW/cm^2) it was 0.0625 µg/mL; in the test with MRSA (0 J/cm^2 (Dark)), 8 µg/mL. Besides, in test [1], the “response of biofilms to aBL and menadione” value is recorded as “did not respond”. Further, on NorA efflux pump, the “inhibition of efflux pump gene expression and efflux pump function” value was “significant inhibition”. Also, in the test with MRSA (aBL 125 J/cm^2 vs dark), the “lowering of MIC by aBL” value stood at 78%.
